The test concerns nude mice, HT29 intrarenal xenograft, tumor weight T/C. Kind of test: NCI In Vivo Anticancer Drug Screen. Data for tumor model HT29;CX-1 Human Adenocarcinoma (MER+) (intrarenal inoculation) in NU/NU Swiss (nude) mice. The following applies: endpoint: mean tumor weight change, higher = larger tumour. Summed up:
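Compounds were given to mice carrying transplantable tumors; a vehicle-dosed group served as control. The endpoint measured in each group was compared as a T/C quotient.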

Where [1] appears, read: dose: 18.0 mg/kg/injection, schedule: Q04DX004 (sc), vehicle: saline with Tween-80.
Where [2] appears, read: dose: 150.0 mg/kg/injection, schedule: Q04DX004 (sc), vehicle: saline with Tween-80.
The mark [3] stands for this setting: dose: 300.0 mg/kg/injection, schedule: Q04DX004 (sc), vehicle: saline with Tween-80.
[4] abbreviates: dose: 600.0 mg/kg/injection, schedule: Q04DX004 (sc), vehicle: saline with Tween-80.
Setting [5] is: dose: 1200.0 mg/kg/injection, schedule: Q04DX004 (sc), vehicle: saline with Tween-80.
[6] abbreviates: dose: 100.0 mg/kg/injection, schedule: Q01DX010 (sc), vehicle: saline with Tween-80.

Among the data in PubChem BioAssay AID206 (DTP/NCI, 2004) are T/C values, retold here.

Each structure is given as a SMILES string. Several values for one entry are separate records, joined by “and”; a condition that tells them apart may be missing. Equal values may be shown once. Inconclusive results are not listed. Positions of bridges follow the written chain, without caps; N, C: chain ends. Non-standard residues stand in square brackets, D forms with d. Residues, ends and D or L forms follow the SMILES beside them. Chains are numbered I, II in the order given. *: point of attachment. Quinoxaline2carbonyl = O=C(c1cnc2ccccc2n1)*; NMeV = CN[CH](C(=O)O)C(C)C; NMeC = CN[CH](CS)C(=O)O

`C[CH2][Pb]([CH2]C)([CH2]C)[O]C(=O)COc1ccccc1`: the T/C by setting is: (dose: 4.5 mg/kg/injection, schedule: Q04DX004 (sc), vehicle: saline with Tween-80) 100 % of control; (dose: 9.0 mg/kg/injection, schedule: Q04DX004 (sc), vehicle: saline with Tween-80) 114 % of control; under setting [1], 65 % of control.
As for `CCCCCC#CC1OC12CCCCC2` (stereo not drawn), the T/C is, setting by setting: under setting [2], 74 % of control; under setting [3], 62 % of control; under setting [4], 77 % of control; under setting [5], 100 % of control.
In the case of `Cc1ccccc1SSc1ccccc1C`, the T/C was 62 % of control under setting [6] and 68 % of control (dose: 200.0 mg/kg/injection, schedule: Q01DX010 (sc), vehicle: saline with Tween-80).
Turning to `Cc1c(N)nc(C(CC(N)=O)NCC(N)C(N)=O)nc1C(=O)NC(C(=O)NC(C)C(O)C(C)C(=O)NC(C(=O)NCCc1nc(-c2nc(C(=O)NCCCNCCCc3ccccn3)cs2)cs1)C(C)O)C(OC1OC(CO)C(O)C(O)C1OC1OC(CO)C(O)C(OC(N)=O)C1O)c1cnc[nH]1` (stereo not drawn), the T/C by setting is: (dose: 9.0 mg/kg/injection, schedule: Q04DX004 (sc), vehicle: water) 164 % of control; (dose: 18.0 mg/kg/injection, schedule: Q04DX004 (sc), vehicle: water) 120 % of control; (dose: 36.0 mg/kg/injection, schedule: Q04DX004 (sc), vehicle: water) 90 % of control.
Turning to `Cc1ccccc1N(CC1CO1)CC1CO1` (stereo not drawn), the T/C (dose: 50.0 mg/kg/injection, schedule: Q01DX010 (sc), vehicle: suspension in saline) was 157 % of control; the T/C (dose: 100.0 mg/kg/injection, schedule: Q01DX010 (sc), vehicle: suspension in saline) is 38 % of control; the T/C (dose: 200.0 mg/kg/injection, schedule: Q01DX010 (sc), vehicle: suspension in saline) was 15 % of control; the T/C (dose: 800.0 mg/kg/injection, schedule: Q01DX010 (sc), vehicle: suspension in saline) was 67 % of control.
As to `CN=C(N)N/N=C(\c1ccccc1)c1ccc(Br)cc1`, the T/C (dose: 50.0 mg/kg/injection, schedule: Q04DX004 (sc), vehicle: saline with Tween-80) was 90 % of control and 92 % of control and 104 % of control.
For the compound `Oc1cc2ccccc2c(-c2c(O)c(O)cc3ccccc23)c1O`, the T/C is 101 % of control (dose: 225.0 mg/kg/injection, schedule: Q04DX004 (sc), vehicle: saline with Tween-80); 55 % of control (dose: 450.0 mg/kg/injection, schedule: Q04DX004 (sc), vehicle: saline with Tween-80); 86 % of control (dose: 900.0 mg/kg/injection, schedule: Q04DX004 (sc), vehicle: saline with Tween-80); 120 % of control under setting [5]; 28 % of control (dose: 1800.0 mg/kg/injection, schedule: Q04DX004 (sc), vehicle: saline with Tween-80); 94 % of control (dose: 2400.0 mg/kg/injection, schedule: Q04DX004 (sc), vehicle: saline with Tween-80).
Consider `C=C1CC2(OC1=O)C(=O)N(C)c1ccc(I)cc12` (stereo not drawn), for which the T/C by setting is: (dose: 37.5 mg/kg/injection, schedule: Q04DX004 (sc), vehicle: suspension in saline) 80 % of control; (dose: 75.0 mg/kg/injection, schedule: Q04DX004 (sc), vehicle: suspension in saline) 71 % of control; (dose: 150.0 mg/kg/injection, schedule: Q04DX004 (sc), vehicle: suspension in saline) 81 % of control.
On to `C/C=C(\C)c1cc(=O)c2c(C)cc3c(c2o1)C(=O)c1c(O)c(C2CC(C)(N(C)C)C(O)C(C)O2)cc(C2CC(N(C)C)C(O)C(C)O2)c1C3=O` (stereo not drawn), for which the T/C runs as follows: (dose: 0.5 mg/kg/injection, schedule: Q04DX004 (sc), vehicle: saline) 78 % of control; (dose: 2.0 mg/kg/injection, schedule: Q04DX004 (sc), vehicle: saline) 112 % of control; (dose: 4.0 mg/kg/injection, schedule: Q04DX004 (sc), vehicle: saline) 82 % of control; (dose: 4.0 mg/kg/injection, schedule: Q04DX004 (sc), vehicle: suspension in saline) 104 % of control; (dose: 8.0 mg/kg/injection, schedule: Q04DX004 (sc), vehicle: suspension in saline) 64 % of control; (dose: 16.0 mg/kg/injection, schedule: Q04DX004 (sc), vehicle: suspension in saline) 90 % of control.
For `CNC(=O)OCc1c(COC(=O)NC)c(-c2ccc(Cl)c(Cl)c2)n2c1Cc1ccccc1C2`, the T/C by setting is: (dose: 300.0 mg/kg/injection, schedule: Q04DX004 (sc), vehicle: distilled water + Tween-80) 109 % of control; (dose: 600.0 mg/kg/injection, schedule: Q04DX004 (sc), vehicle: distilled water + Tween-80) 119 % of control; (dose: 1200.0 mg/kg/injection, schedule: Q04DX004 (sc), vehicle: distilled water + Tween-80) 61 % of control; (dose: 2400.0 mg/kg/injection, schedule: Q04DX004 (sc), vehicle: distilled water + Tween-80) 65 % of control.
For `CC1NC(=O)C(NC(=O)c2cnc3ccccc3n2)COC(=O)C(C(C)C)N(C)C(=O)C2CSSCC(C(=O)N(C)C(C(C)C)C(=O)OCC(NC(=O)c3cnc4ccccc4n3)C(=O)NC(C)C(=O)N2C)N(C)C1=O` (stereo not drawn) (I: Quinoxaline2carbonyl-SA[NMeC][NMeV] / II: Quinoxaline2carbonyl-SA[NMeC][NMeV]; ester I:1-II:C, I:C-II:1; disulfide I:3-II:3; configuration not given here), the T/C (dose: 100.0 mg/kg/injection, schedule: Q04DX004 (sc), vehicle: Klucel (hydroxypropylcellulose) (HPC)) was 115 % of control; the T/C (dose: 200.0 mg/kg/injection, schedule: Q04DX004 (sc), vehicle: Klucel (hydroxypropylcellulose) (HPC)) was 96 % of control; the T/C (dose: 400.0 mg/kg/injection, schedule: Q04DX004 (sc), vehicle: Klucel (hydroxypropylcellulose) (HPC)) is 74 % of control.
Take `CC(C)[C@]12O[C@H]1[C@@H]1O[C@]13[C@]1(O[C@H]1C[C@H]1C4=C(C(=O)OC4)[C@@H](O)C[C@@]13C)[C@@H]2O`: the T/C was 63 % of control (dose: 0.1 mg/kg/injection, schedule: Q01DX010 (sc), vehicle: saline + alcohol) and 77 % of control (dose: 0.2 mg/kg/injection, schedule: Q01DX010 (sc), vehicle: saline + alcohol).
Regarding `[Cl][Sn]([c]1ccccc1)[c]1ccccc1`, the T/C was 59 % of control (dose: 75.0 mg/kg/injection, schedule: Q04DX004 (sc), vehicle: saline); 67 % of control (dose: 150.0 mg/kg/injection, schedule: Q04DX004 (sc), vehicle: saline); 63 % of control (dose: 300.0 mg/kg/injection, schedule: Q04DX004 (sc), vehicle: saline); 62 % of control (dose: 600.0 mg/kg/injection, schedule: Q04DX004 (sc), vehicle: saline).
With `CC1(O)CC23CC(O)C4(O)C(CC(O)C4(C)C)C(C)(O)C2CCC1C3O` (stereo not drawn), the T/C (dose: 0.25 mg/kg/injection, schedule: Q04DX004 (sc), vehicle: Klucel (hydroxypropylcellulose) (HPC)) was 46 % of control; the T/C (dose: 0.5 mg/kg/injection, schedule: Q04DX004 (sc), vehicle: Klucel (hydroxypropylcellulose) (HPC)) was 37 % of control; the T/C (dose: 1.0 mg/kg/injection, schedule: Q04DX004 (sc), vehicle: Klucel (hydroxypropylcellulose) (HPC)) was 82 % of control.
Turning to `C=CCNc1ccc(C)cc1`, the T/C runs as follows: (dose: 50.0 mg/kg/injection, schedule: Q01DX010 (sc), vehicle: Klucel (hydroxypropylcellulose) (HPC)) 105 % of control; (dose: 200.0 mg/kg/injection, schedule: Q01DX010 (sc), vehicle: Klucel (hydroxypropylcellulose) (HPC)) 86 % of control.
Take `C/C=C/c1cc2n(c1)C(=O)c1cc(OC3OC(C)C(NC)C(C)(O)C3O)c(C)c(O)c1NC2O` (stereo not drawn): the T/C (dose: 12.5 micrograms/kg/injection, schedule: Q04DX004 (sc), vehicle: saline) is 69 % of control; the T/C (dose: 25.0 micrograms/kg/injection, schedule: Q04DX004 (sc), vehicle: saline) is 101 % of control; the T/C (dose: 50.0 micrograms/kg/injection, schedule: Q04DX004 (sc), vehicle: saline) is 83 % of control; the T/C (dose: 100.0 micrograms/kg/injection, schedule: Q04DX004 (sc), vehicle: saline) was 94 % of control.
Regarding `COc1ccc2nc3cc(Cl)ccc3c(NCCNCCNCCNc3c4ccc(Cl)cc4nc4ccc(OC)cc34)c2c1`, the T/C is 116 % of control under setting [6]; 124 % of control (dose: 400.0 mg/kg/injection, schedule: Q01DX010 (sc), vehicle: saline with Tween-80); 93 % of control (dose: 800.0 mg/kg/injection, schedule: Q01DX010 (sc), vehicle: saline with Tween-80).
Take `COc1ccc([I+]c2cccc(Cl)c2)cc1Cl`: the T/C was 67 % of control (dose: 37.5 mg/kg/injection, schedule: Q04DX004 (sc), vehicle: saline with Tween-80); 48 % of control (dose: 75.0 mg/kg/injection, schedule: Q04DX004 (sc), vehicle: saline with Tween-80); 58 % of control under setting [2]; 39 % of control under setting [3]; 64 % of control under setting [4].
In the case of `CN(C)CCN1C(=O)c2cccc3cc([N+](=O)[O-])cc(c23)C1=O`, under setting [1], the T/C was 95 % of control.
